The assay concerns the target human adenosine A2b receptor (Homo sapiens (Human), UniProt P29275). Briefly: Cellular in vitro reporter gene test for A2b receptor activity (CHO-K1, CRE-luciferase, NECA stimulation). It counts as cell-based. To be noted: recombinant CHO-K1 cell line, CRE-luciferase reporter, antagonism of EC50 concentration of NECA; in some cases means of several determinations, rounded to two significant figures; read-out: A2b receptor IC50. The method, then:
B-1. Cellular In Vitro Tests for Determining A2b Receptor Activity and Adenosine Receptor Selectivity
In the case of the A2a and A2b cell lines, this is a minimal promoter having a plurality of cAMP-responsive elements (CRE). Stimulation of the Gs-coupled A2b or A2a receptors by NECA ultimately leads, via formation of cAMP, to CRE-dependent induction of luciferase expression, which is detected 3 hours after the start of the incubation with NECA using a detection solution in a suitable luminometer. For testing the antagonists, initially, in a pre-experiment, the concentration of NECA which, at the test day in question, results in half-maximum stimulation of luciferase expression (EC50 concentration) is determined. By joint incubation of this EC50 concentration of NECA with the substances to be tested, it is possible to determine their antagonistic activity.
Background: In a reporter assay the amount or activity of a reporter protein is the signal.

Sequence of human adenosine A2b receptor (P29275 whole entry): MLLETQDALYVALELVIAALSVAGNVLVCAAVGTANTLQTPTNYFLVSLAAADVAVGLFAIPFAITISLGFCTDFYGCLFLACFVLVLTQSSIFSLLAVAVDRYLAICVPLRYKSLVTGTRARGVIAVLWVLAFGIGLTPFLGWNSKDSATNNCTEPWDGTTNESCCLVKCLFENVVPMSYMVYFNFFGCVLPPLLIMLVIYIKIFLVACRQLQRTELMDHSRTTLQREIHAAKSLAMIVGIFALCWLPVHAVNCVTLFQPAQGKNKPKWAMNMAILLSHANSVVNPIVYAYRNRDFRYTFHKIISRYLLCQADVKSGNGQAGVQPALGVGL

As to `COCCn1c(=O)c2c(C)c(CN3CCNC3=O)sc2n(CCC(F)(F)F)c1=O` [Example 229, 3-(2-Methoxyethyl)-5-methyl-6-[(2-oxoimidazolidin-1-yl)methyl]-1-(3,3,3-trifluoropropyl)thieno[2,3-d]pyrimidine-2,4(1H,3H)-dione], the IC50 (as a rule, the concentration at which inhibition is half-maximal) was 4 nM.

For the compound `COC(=O)N=C1NCCN1Cc1sc2c(c1C)c(=O)n(CC(F)(F)F)c(=O)n2CC1CCO1` (single isomer, unassigned) [Example 466, Methyl [1-{[5-methyl-1-(oxetan-2-ylmethyl)-2,4-dioxo-3-(2,2,2-trifluoroethyl)-1,2,3,4-tetrahydrothieno[2,3-d]pyrimidin-6-yl]methyl}imidazolidin-2-ylidene]carbamate], the half-inhibitory concentration (IC50) was determined as 6.6 nM.

For `CCn1c(=O)c2c(C)c(CN3CCNC3=O)sc2n(CC2CC2(F)F)c1=O` (racemic) [Example 54, 1-[(2,2-Difluorocyclopropyl)methyl]-3-ethyl-5-methyl-6-[(2-oxoimidazolidin-1-yl)methyl]thieno[2,3-d]pyrimidine-2,4(1H,3H)-dione (racemate)], the IC50 came out at 4.1 nM.

With `C=CCn1cnn(Cc2sc3c(c2C)c(=O)n(CC)c(=O)n3CCC(F)(F)F)c1=O` [Example 110, 6-[(4-Allyl-5-oxo-4,5-dihydro-H-1,2,4-triazol-1-yl)methyl]-3-ethyl-5-methyl-1-(3,3,3-trifluoropropyl)thieno[2,3-d]pyrimidine-2,4(1H,3H)-dione], the concentration for half-maximal inhibition (IC50) is 79 nM.

Take `Cc1c(Cn2nc[nH]c2=O)sc2c1c(=O)n(C(C)C)c(=O)n2CC1CCCO1` (racemic) [Example 424, 3-Isopropyl-5-methyl-6-[(5-oxo-4,5-dihydro-1H-1,2,4-triazol-1-yl)methyl]-1-(tetrahydrofuran-2-ylmethyl)thieno[2,3-d]pyrimidine-2,4(1H,3H)-dione]: the 50% inhibitory concentration (IC50) was 88 nM.

As for `CCn1c(=O)c2c(C)c(CN3CCNC3=NC#N)sc2n(CC2CCCO2)c1=O` (racemic) [Example 259, [1-{[3-Ethyl-5-methyl-2,4-dioxo-1-(tetrahydrofuran-2-ylmethyl)-1,2,3,4-tetrahydrothieno[2,3-d]pyrimidin-6-yl]methyl}imidazolidin-2-ylidene]cyanamide], the IC50 came to 9.8 nM.

With `Cc1c(CN2CCNC2=S)sc2c1c(=O)n(CC(C)(C)C)c(=O)n2CCCF` [Example 150, 3-(2,2-Dimethylpropyl)-1-(3-fluoropropyl)-5-methyl-6-[(2-thioxoimidazolidin-1-yl)methyl]thieno[2,3-d]pyrimidine-2,4(1H,3H)-dione], the half-inhibitory concentration (IC50) was determined as 6 nM.

Turning to `CCn1c(=O)c2c(C)c(Cn3nc[nH]c3=O)sc2n(CCOC)c1=O` [Example 114, 3-Ethyl-1-(2-methoxyethyl)-5-methyl-6-[(5-oxo-4,5-dihydro-1H-1,2,4-triazol-1-yl)methyl]thieno[2,3-d]pyrimidine-2,4(1H,3H)-dione], the half-maximal inhibitory concentration (IC50) came out at 39 nM.

Take `CCn1c(=O)c2c(C)c(CN3CCNC3=S)sc2n(CC(F)F)c1=O` [Example 137, 1-(2,2-Difluoroethyl)-3-ethyl-5-methyl-6-[(2-thioxoimidazolidin-1-yl)methyl]thieno[2,3-d]pyrimidine-2,4(1H,3H)-dione]: the concentration for half-maximal inhibition (IC50) turned out to be 10 nM.

For `CCn1c(=O)c2c(C)c(CN3CCNC3=O)sc2n(CC2CC2(F)F)c1=O` (single isomer, unassigned; enantiomer 2) [Example 56, 1-[(2,2-Difluorocyclopropyl)methyl]-3-ethyl-5-methyl-6-[(2-oxoimidazolidin-1-yl)methyl]thieno[2,3-d]pyrimidine-2,4(1H,3H)-dione (Enantiomer 2)], the IC50 came to 8 nM.

In the case of `Cc1c(CN2CCNC2=O)sc2c1c(=O)n(CC(F)(F)F)c(=O)n2CC1CCO1` (single isomer, unassigned) [Example 208, 5-Methyl-1-(oxetan-2-ylmethyl)-6-[(2-oxoimidazolidin-1-yl)methyl]-3-(2,2,2-trifluoroethyl)thieno[2,3-d]pyrimidine-2,4(1H,3H)-dione], the concentration for half-maximal inhibition (IC50) came to 8.9 nM.

For `CCn1c(=O)c2c(C)c(CN3CC(C)NC3=S)sc2n(CCOC)c1=O` (racemic) [Example 303, 3-Ethyl-1-(2-methoxyethyl)-5-methyl-6-[(4-methyl-2-thioxoimidazolidin-1-yl)methyl]thieno[2,3-d]pyrimidine-2,4(1H,3H)-dione], the 50% inhibitory concentration (IC50) is 46 nM.

Consider `COCCn1c(=O)n(CC(F)(F)F)c(=O)c2c(C)c(CN3CCNC3=O)sc21` [Example 94, 1-(2-Methoxyethyl)-5-methyl-6-[(2-oxoimidazolidin-1-yl)methyl]-3-(2,2,2-trifluoroethyl)thieno[2,3-d]pyrimidine-2,4(1H,3H)-dione], for which the IC50 is 7.7 nM.

`CCOCCn1c(=O)c2c(C)c(CN3CCNC(=O)C3=O)sc2n(CCCF)c1=O` [Example 492, 6-[(2,3-Dioxopiperazin-1-yl)methyl]-3-(2-ethoxyethyl)-1-(3-fluoropropyl)-5-methylthieno[2,3-d]pyrimidine-2,4(1H,3H)-dione]: the IC50 amounted to 250 nM.

As to `Cc1c(CN2CCNC2=S)sc2c1c(=O)n(C(C)C)c(=O)n2C` [Example 297, 3-Isopropyl-1,5-dimethyl-6-[(2-thioxoimidazolidin-1-yl)methyl]thieno[2,3-d]pyrimidine-2,4(1H,3H)-dione], the 50% inhibitory concentration (IC50) worked out at 17 nM.

Regarding `Cc1c(CN2CCNC(=O)C2=O)sc2c1c(=O)n(CC(C)(C)C)c(=O)n2CC1CCCO1` (single isomer, unassigned) [Example 484, 3-(2,2-Dimethylpropyl)-6-[(2,3-dioxopiperazin-1-yl)methyl]-5-methyl-1-(tetrahydrofuran-2-ylmethyl)thieno[2,3-d]pyrimidine-2,4(1H,3H)-dione], the IC50 was determined as 67 nM.

Take `CCn1c(=O)c2c(C)c(CN3CCCC3=O)sc2n(CCC(F)(F)F)c1=O` [Example 4, 3-Ethyl-5-methyl-6-[(2-oxopyrrolidin-1-yl)methyl]-1-(3,3,3-trifluoropropyl)thieno[2,3-d]pyrimidine-2,4(1H,3H)-dione]: the IC50 worked out at 5.2 nM.

On to `Cc1c(CN2CCNC2=NC#N)sc2c1c(=O)n(CC(F)(F)F)c(=O)n2CC1CCO1` (single isomer, unassigned) [Example 449, [1-{[5-Methyl-1-(oxetan-2-ylmethyl)-2,4-dioxo-3-(2,2,2-trifluoroethyl)-1,2,3,4-tetrahydrothieno[2,3-d]pyrimidin-6-yl]methyl}imidazolidin-2-ylidene]cyanamide], for which the 50% inhibitory concentration (IC50) was 54 nM.

With `Cc1c(CN2CCNC2=O)sc2c1c(=O)n(CC(C)C)c(=O)n2C` [Example 91, 3-Isobutyl-1,5-dimethyl-6-[(2-oxoimidazolidin-1-yl)methyl]thieno[2,3-d]pyrimidine-2,4(1H,3H)-dione], the IC50 worked out at 11 nM.

For the compound `COCCn1c(=O)n(CC(F)(F)F)c(=O)c2c(C)c(Cn3cc[nH]c3=O)sc21` [Example 340, 1-(2-Methoxyethyl)-5-methyl-6-[(2-oxo-2,3-dihydro-1H-imidazol-1-yl)methyl]-3-(2,2,2-trifluoroethyl)thieno[2,3-d]pyrimidine-2,4(1H,3H)-dione], the IC50 amounted to 18 nM.

For `CCn1c(=O)c2c(C)c(C(C)N3CCNC3=O)sc2n(CCC(F)(F)F)c1=O` (single isomer, unassigned) [Example 503, 3-Ethyl-5-methyl-6-[1-(2-oxoimidazolidin-1-yl)ethyl]-1-(3,3,3-trifluoropropyl)thieno[2,3-d]pyrimidine-2,4(1H,3H)-dione], the half-maximal inhibitory concentration (IC50) amounted to 39 nM.

As for `COC(=O)N=C1NCCN1Cc1sc2c(c1C)c(=O)n(CC(F)(F)F)c(=O)n2CC1CCO1` (single isomer, unassigned) [Example 467, Methyl [1-{[5-methyl-1-(oxetan-2-ylmethyl)-2,4-dioxo-3-(2,2,2-trifluoroethyl)-1,2,3,4-tetrahydrothieno[2,3-d]pyrimidin-6-yl]methyl}imidazolidin-2-ylidene]carbamate], the IC50 worked out at 30 nM.

On to `CCn1c(=O)c2c(C)c(C(C)N3CCNC3=O)sc2n(CCC(F)(F)F)c1=O` (single isomer, unassigned) [Example 504, 3-Ethyl-5-methyl-6-[1-(2-oxoimidazolidin-1-yl)ethyl]-1-(3,3,3-trifluoropropyl)thieno[2,3-d]pyrimidine-2,4(1H,3H)-dione], for which the IC50 turned out to be 2000 nM.

In the case of `Cc1c(CN2CCN(C(C)C)C2=S)sc2c1c(=O)n(CC(F)(F)F)c(=O)n2C` [Example 305, 6-[(3-Isopropyl-2-thioxoimidazolidin-1-yl)methyl]-1,5-dimethyl-3-(2,2,2-trifluoroethyl)thieno[2,3-d]pyrimidine-2,4(1H,3H)-dione], the IC50 was 140 nM.

Take `CCn1c(=O)c2c(C(F)F)c(CN3CCNC3=O)sc2n(CCC(F)(F)F)c1=O` [Example 100, 5-(Difluoromethyl)-3-ethyl-6-[(2-oxoimidazolidin-1-yl)methyl]-1-(3,3,3-trifluoropropyl)thieno[2,3-d]pyrimidine-2,4(1H,3H)-dione]: the concentration for half-maximal inhibition (IC50) worked out at 6.8 nM.

`CCn1c(=O)c2c(C)c(CN3CCCS3(=O)=O)sc2n(CCC(F)(F)F)c1=O` [Example 16, 6-[(1,1-Dioxido-1,2-thiazolidin-2-yl)methyl]-3-ethyl-5-methyl-1-(3,3,3-trifluoropropyl)thieno[2,3-d]pyrimidine-2,4(1H,3H)-dione]: the IC50 came to 2.7 nM.

As for `COCCn1c(=O)n(C(C)C)c(=O)c2c(C)c(CN3CCNC3=NC(=O)OC)sc21` [Example 378, Methyl [1-{[3-isopropyl-1-(2-methoxyethyl)-5-methyl-2,4-dioxo-1,2,3,4-tetrahydrothieno[2,3-d]pyrimidin-6-yl]methyl}imidazolidin-2-ylidene]carbamate], the half-maximal inhibitory concentration (IC50) turned out to be 3.1 nM.
